Molecular target: T1, fluorinase FlA1 (Streptomyces sp., UniProt W0W999)
T1 construct: recombinant, overexpressed in Escherichia coli, purified
Test: global numerical fit of steady-state kinetics and mass photometry
Assay type: biochemical
Details: 75 mM KF, 50 mM HEPES, pH 7.8, 37 °C; competitive with fluoride; dissociation of the unproductive E·SAM complex

T1 sequence (W0W999 whole entry): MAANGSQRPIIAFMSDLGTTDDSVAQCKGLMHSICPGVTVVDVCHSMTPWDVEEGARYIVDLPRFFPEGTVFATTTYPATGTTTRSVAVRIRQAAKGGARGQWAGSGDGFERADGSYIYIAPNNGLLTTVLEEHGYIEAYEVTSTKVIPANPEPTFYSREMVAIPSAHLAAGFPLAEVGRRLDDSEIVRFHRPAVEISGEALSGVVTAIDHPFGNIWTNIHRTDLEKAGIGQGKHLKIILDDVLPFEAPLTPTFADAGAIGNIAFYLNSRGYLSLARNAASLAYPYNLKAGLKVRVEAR

C[S+](CC[C@H](N)C(=O)O)C[C@H]1O[C@@H](n2cnc3c(N)ncnc32)[C@H](O)[C@@H]1O (stereo partly shown) [SAM]
Ki,SAM: 1160 ± 80 nM
